# Results as given in article PMC9322565 (Chemmedchem, 2022).
# Like-named read-outs stand apart in the source and are kept apart here.
# Legend:
# [1] = tested on: L. major IR‐173 promastigotes; assay: Antipromastigote assay (resazurin); format: cell-based; settings: Leishmania major, read-out: Antipromastigote activity, IC50 ±SD, IR‐173
# Experimental: (§1) Antipromastigote assay: The antipromastigote activity of synthesized compounds was evaluated as described previously by […] al.[47] using L. donovani 9515 (MHOM/IN/95/9515) and L. major IR-173 (MHOM/IR/-173). […] Al dri c h) […] The prom astigotes were […] 25 °C. […] Therm ofisher Scientific) in the presence of: […] com pounds for IC50 determination. […] blank. […] Em etine served as the standard cytotoxic drug. […] References […]
# [2] = tested on: L. donovani 9515 amastigotes; assay: Anti‐amastigote assay, intramacrophage (THP‐1), resazurin; format: cell-based, Leishmania donovani; settings: for fold selective antiparasitic action against L. donovani amastigote in the presence of mammalian cells: HEK‐293 and THP‐1; for fold higher potency than the NF antibiotics: L. donovani amastigote; for fold more specificity for donovani amastigote than AMB: comparison of SpI2 values vs. AMB 0.4; for Selectivity index SI2: L. donovani 9515: IC50 HEK‐293/IC50 amastigote; for Selectivity index SI4: L. donovani 9515: IC50 THP‐1/IC50 amastigote; for IC50: Leishmania donovani, THP-1, L. donovani 9515 intramacrophage amastigotes, read-out: Anti‐amastigote activity, IC50 ±SD, 9515; for Specificity index SpI2: L. donovani 9515: IC50 promastigote/IC50 amastigote
# Experimental: (§2) For the anti‐amastigote assay, differentiated plates were carefully washed with PBS, followed by the addition of 200 μL of stationary phase promastigotes in RPMI 1640 medium with 2 % FBS. An MOI of 30 : 1 was used for all three Leishmania strains. […] The treated plates were incubated for 72 hours. After incubation, the plates were gently washed three times with PBS to remove any remaining extracellular parasites. The wells were then treated with 20 μL of 0.05 % sodium dodecyl sulphate in PBS for 30 seconds to lyse the host macrophages. Lysis was terminated by adding 180 μL promastigote growth medium with 10 % FBS. […] Absorbance measurements, calculations and IC50 determinations were performed as described for the antipromastigote assay (Supporting Information).
# [3] = Macrophage toxicity, resazurin assay; format: cell-based; settings: human, differentiated THP‐1 macrophages, read-out: Cytotoxicity, THP‐1, IC50±SD
# Experimental: Macrophage toxicity: Toxicity of the compounds on the differentiated host THP‐1 cells were also evaluated. As mentioned, duplicate plates of differentiated THP‐1 cells were prepared during the anti‐amastigote assay. These plates were incubated for 72 hours to differentiate, instead of replacing the growth medium with parasite‐containing medium after 48 hours. […] Blanks were growth medium without cells. The treated plates were incubated for 72 hours, followed by the addition of 50 μL of resazurin solution (0.01 % in PBS) to each well and 24‐hour incubation.
# [4] = Basal cytotoxicity, resazurin assay; settings: human
# [5] = tested on: L. major IR‐173 amastigotes; assay: Anti‐amastigote assay, intramacrophage (THP‐1), resazurin; format: cell-based, Leishmania major; settings: for Selectivity index SI3: L. major IR‐173: IC50 THP‐1/IC50 amastigote; for Specificity index SpI1: L. major IR‐173: IC50 promastigote/IC50 amastigote; for IC50: read-out: Anti‐amastigote activity, IC50 ±SD, IR‐173; for Selectivity index SI1: L. major IR‐173: IC50 HEK‐293/IC50 amastigote
# Experimental: as §2
# [6] = tested on: L. donovani 9515 promastigotes; assay: Antipromastigote assay (resazurin); format: cell-based, Leishmania donovani; settings: for IC50: Leishmania donovani, read-out: Antipromastigote activity, IC50 ±SD, 9515
# Experimental: as §1
# [7] = in vitro; settings: human, Cytotoxicity, HEK‐293, IC50±SD
# [8] = cited from earlier work
# [9] = during therapy ref 19; cited from earlier work
# [10] = tested on: HEK‐293 cells; assay: Basal cytotoxicity, resazurin assay; settings: read-out: Cytotoxicity, HEK‐293, IC50±SD; HEK‐293 cells, resazurin
# [11] = differentiated THP-1 cells (macrophages)
# [12] = HEK-293 cells (ATCC CRL 1573), Cytotoxicity, HEK‐293, IC50±SD, HEK‐293 cells, resazurin
# [13] = L. major IR‐173 intramacrophage amastigotes
# [14] = Leishmania major, THP-1, L. major IR‐173 intramacrophage amastigotes
SMILES,IC50 [1] [µM],"IC50 at 72 h [3, 11] [µM]","IC50 [4, 12] [µM]","IC50 [5, 14] [µM]",Selectivity index SI4 [2],IC50 [2] [µM],IC50 [6] [µM],other results
C#CCN1C(=O)CN(/N=C/c2ccc([N+](=O)[O-])o2)C1=O [Compound 1],0.51 ± 0.05,99.94 ± 0.09,–,–,–,–,–,fold selective antiparasitic action against L. donovani amastigote in the presence of mammalian cells [2]: more than 100 fold; fold higher potency than the NF antibiotics [2]: up to 30 fold; fold more specificity for donovani amastigote than AMB [2]: 20 fold
CCCCCn1cc(CN2C(=O)CN(/N=C/c3ccc([N+](=O)[O-])o3)C2=O)nn1 [Compound 2],0.09,> 100,> 100,–,–,–,–,–
O=C1CN(/N=C/c2ccc([N+](=O)[O-])o2)C(=O)N1Cc1cn(Cc2ccc(Br)cc2F)nn1 [Compound 16],0.19 ± 0.01,55.7 ± 1.17,14.4 ± 0.84,< 10,6,9.21,–,"Selectivity index SI3 [5]: 9; Specificity index SpI1 [5]: 0.5; IC50 [5, 13]: 6.42 ± 0.38 µM; Selectivity index SI2 [2]: 2"
"O=C1OCCN1/N=C/c1ccc([N+](=O)[O-])o1 [FZD, furazolidone, reference compound]",0.37 ± 0.02,–,–,2.8 ± 0.5,–,4.11 ± 0.78,0.57 ± 0.05,–
CCCCCCCCCCCCn1cc(CN2C(=O)CN(/N=C/c3ccc([N+](=O)[O-])o3)C2=O)nn1 [Compound 9],0.38 ± 0.01,> 100,–,–,–,–,–,–
CCCCCCCCn1cc(CN2C(=O)CN(/N=C/c3ccc([N+](=O)[O-])o3)C2=O)nn1 [Compound 5],0.27 ± 0.02,–,31.9 ± 3.55,–,–,–,–,–
O=C1CN(/N=C/c2ccc([N+](=O)[O-])o2)C(=O)N1Cc1cn(Cc2ccc(Br)cc2)nn1 [Compound 15],0.5 ± 0.03,> 100,32.7 ± 4.19,5.14 ± 0.67,–,–,7.59 ± 0.56,Selectivity index SI1 [5]: 6; Selectivity index SI3 [5]: > 19; Specificity index SpI1 [5]: 0.1
"O=C(N/N=C/c1ccc([N+](=O)[O-])o1)c1ccc(O)cc1 [NFX, nifuroxazide, reference compound]",> 10,> 100,–,> 10,> 14,7.29 ± 0.39,4.48 ± 0.1,Specificity index SpI2 [2]: 0.6; IC50 [7]: > 100 µM
CCCCCCn1cc(CN2C(=O)CN(/N=C/c3ccc([N+](=O)[O-])o3)C2=O)nn1 [Compound 3],0.48 ± 0.02,–,17.9 ± 1.3,–,–,–,–,–
"C[C@@H]1[C@H](O)[C@@H](C)/C=C/C=C/C=C/C=C/C=C/C=C/C=C/[C@H](O[C@@H]2O[C@H](C)[C@@H](O)[C@H](N)[C@@H]2O)C[C@@H]2O[C@](O)(C[C@@H](O)C[C@@H](O)[C@H](O)CC[C@@H](O)C[C@@H](O)CC(=O)O[C@H]1C)C[C@H](O)[C@H]2C(=O)O [AMB, amphotericin B, reference compound]",0.03 ± 0.01,–,–,0.03,–,0.05,0.02,–
CCCCCCCCCn1cc(CN2C(=O)CN(/N=C/c3ccc([N+](=O)[O-])o3)C2=O)nn1 [Compound 6],6.51 ± 1.13,> 100,43.8 ± 4.13,–,–,–,4.68 ± 0.32,Selectivity index SI2 [2]: 12; Specificity index SpI2 [2]: 1.3; fold more specificity for donovani amastigote than AMB [2]: 3 fold
O=C1CN(/N=C/c2ccc([N+](=O)[O-])o2)C(=O)N1Cc1cn(Cc2ccccc2)nn1 [Compound 11],0.68 ± 0.13,–,21 ± 3.25,–,–,–,–,–
CCCCCCCn1cc(CN2C(=O)CN(/N=C/c3ccc([N+](=O)[O-])o3)C2=O)nn1 [Compound 4],6.85 ± 0.44,> 100,> 100,–,–,–,0.18 ± 0.05,fold selective antiparasitic action against L. donovani amastigote in the presence of mammalian cells [2]: more than 100 fold; fold higher potency than the NF antibiotics [2]: up to 30 fold
CCCCCCCCCCCn1cc(CN2C(=O)CN(/N=C/c3ccc([N+](=O)[O-])o3)C2=O)nn1 [Compound 8],1.24 ± 0.13,> 100,20.3 ± 3.15,–,> 22,4.49,1.6 ± 0.08,Selectivity index SI2 [2]: 5; Specificity index SpI2 [2]: 0.4
"NC(=O)N/N=C/c1ccc([N+](=O)[O-])o1 [NFZ, nitrofurazone, reference compound]",1.22 ± 0.03,> 100,> 100,5.75 ± 0.75,> 20,4.94 ± 0.61,1.82 ± 0.03,Selectivity index SI3 [5]: > 17; Specificity index SpI1 [5]: 0.2; Specificity index SpI2 [2]: 0.4
O=C1CN(/N=C/c2ccc([N+](=O)[O-])o2)C(=O)N1Cc1cn(Cc2cccc(Br)c2)nn1 [Compound 19],0.48,–,12.6 ± 0.46,–,–,–,1.75 ± 0.11,–
O=C1CN(/N=C/c2ccc([N+](=O)[O-])o2)C(=O)N1Cc1cn(CCc2ccc([N+](=O)[O-])cc2)nn1 [Compound 10],0.17,–,–,–,–,–,–,IC50 at 72 h [3]: > 100 µM; IC50 [4]: 43.7 ± 3.37 µM
O=C1CN(/N=C/c2ccc([N+](=O)[O-])o2)C(=O)N1Cc1cn(Cc2ccc([N+](=O)[O-])cc2)nn1 [Compound 18],0.38,–,–,–,–,–,–,IC50 [4]: 60.2 ± 2.29 µM
Cc1ccc(Cn2cc(CN3C(=O)CN(/N=C/c4ccc([N+](=O)[O-])o4)C3=O)nn2)cc1 [Compound 12],0.34 ± 0.11,–,41.8 ± 1.21,–,–,–,–,–
"O=C1CN(/N=C/c2ccc([N+](=O)[O-])o2)C(=O)N1 [NFT, nitrofurantoin, reference compound]",> 10,> 100,–,> 10,> 10,9.92 ± 0.11,> 10,IC50 [7]: > 100 µM; solubility in DMF ([8]; DMF): 50 mg/mL; solubility in DMSO ([8]; DMSO): 25 mg/mL; solubility in water ([8]; water ref 26): 0.19 mg/mL; excreted unchanged [9]: 33%
O=C1CN(/N=C/c2ccc([N+](=O)[O-])o2)C(=O)N1Cc1cn(Cc2ccc(F)cc2)nn1 [Compound 17],1.05 ± 0.07,–,48.4 ± 1.88,–,–,–,–,–
"CC[C@H]1CN2CCc3cc(OC)c(OC)cc3[C@@H]2C[C@@H]1C[C@H]1NCCc2cc(OC)c(OC)cc21 [EM, Emetine, reference compound]",–,–,0.01,–,–,–,–,–
CC(C)(C)c1ccc(Cn2cc(CN3C(=O)CN(/N=C/c4ccc([N+](=O)[O-])o4)C3=O)nn2)cc1 [Compound 14],0.45 ± 0.1,> 100,23.2 ± 2.77,–,> 86,1.16 ± 0.02,–,"Antipromastigote activity, IC50 ±SD, 9515 [6]: inactive; Selectivity index SI2 [2]: 20"
CCCCCCCCCCn1cc(CN2C(=O)CN(/N=C/c3ccc([N+](=O)[O-])o3)C2=O)nn1 [Compound 7],0.34 ± 0.02,> 100,67.1 ± 5.22,< 10,> 16,6.17 ± 0.47,–,"Antipromastigote activity, IC50 ±SD, 9515 [6]: inactive; Selectivity index SI1 [5]: 10; Selectivity index SI3 [5]: > 15; IC50 [5, 13]: 6.72 µM; Selectivity index SI2 [2]: 11"
O=C1CN(/N=C/c2ccc([N+](=O)[O-])o2)C(=O)N1Cc1cn(Cc2cccc(C(F)(F)F)c2)nn1 [Compound 20],0.13 ± 0.02,–,15.8 ± 3.69,–,–,–,–,–
CC(C)c1ccc(Cn2cc(CN3C(=O)CN(/N=C/c4ccc([N+](=O)[O-])o4)C3=O)nn2)cc1 [Compound 13],0.57 ± 0.01,> 100,< 10,–,> 11,9.13,–,"Antipromastigote activity, IC50 ±SD, 9515 [6]: inactive; Selectivity index SI2 [2]: 1; IC50 [10]: 7.27 ± 0.93 µM"
